Measured values reported in US20260115162A1, “COMPOSITION OR ASSOCIATION OF COMPOUNDS PREFERABLY FOR USE IN THE TREATMENT OF NERVOUS DISEASES IN PARTICULAR NEURODEGENERATIVE DISEASES, METHOD FOR THE PREPARATION OF SUCH COMPOSITION OR ASSOCIATION OF COMPOUNDS AND USES THEREOF” (PHARMACEUTICA SAN MARCO S.R.L., priority 2022, published 2026).

Key:
[1] = Pharmacokinetics of βBA and AKBA via os in healthy volunteers, fasted and hyperlipidic meal (Sterk V et al. 2004); type: in vivo, humans
Text: Indeed, βBA has a concentration in the blood: • at least 6 times higher than AKBA both in the fasting condition and with a hyperlipidic meal; • increased by 6 times after hyperlipidic meal so that the plasma/os ratio passes from 0.09 to 0.55.

[2] = Plasma levels of βBA and AKBA via os in patients (Gerbeth K et al. 2011); type: in vivo, humans
[3] = mice, via os, cited from earlier work
[4] = system: PSD-95; test: PSD-95 in PFC and HIPP of mice treated with Aβ icv, Western blotting (FIG. 12); type: in vivo; details: after 7 days
Method: The βCP, FE, βBA and HA4 influence on prefrontal and hippocampal synaptic plasticity was evaluated using anti-PSD-95, anti-synaptophysin, anti-CaMKII antibodies.
(§1) The Aβ1-42, obtained from Tocris (Bristol, UK), was dissolved in sterile double-distilled pyrogenic-free water, as vehicle, to obtain a final concentration 4 μM [Colaianna M et al. 2010]. Mice were anesthetized with a solution (0.85 in ml/kg, i.p.), containing ketamine (Sigma Aldrich, Milan, Italy, 100 mg/10 ml), xylazine (Sigma Aldrich, Milan, Italy, 100 mg/10 ml) and acepromazine (prequillant, ATI Azienda Terapeutica Veterinaria Srl, 10 mg/10 ml) dissolved in saline solution. […] At the time of dissection, the correct needle track was assessed. […]
The total amount of proteins was measured in homogenates by using Pierce BCA Assay (Thermo Fisher Scientific, Cleveland, OH, USA). […] After HRP-conjugated specific antibody incubation, ECL reagent (Bio-Rad Laboratories Inc., Segrate (MI), Italy) was added to the immune complex and chemiluminescence was detected by ChemiDoc MP system (Bio-Rad Laboratories Inc., Segrate (MI), Italy). Optical densities of the bands were measured using Image J software (http://rsb.info.nih.gov/ij/ accessed on 15 Mar. 2021) and normalized against bands relative to -actin (1:5,000, Abcam, Cambridge, UK).

[5] = system: noradrenaline (NA); test: Norepinephrine (NA) levels in mice treated with Aβ icv (FIG. 5b); type: in vivo; details: PFC and HIPP
Method: as §1
All behavioral experiments were conducted at 5 or 30 min after sublingual administrations of βBA or vehicle in mice treated with SHAM or AP. Based on the observed behavioral results, neurochemical and biochemical quantifications were performed 30 min after administration of βCP, FE, and βBA or vehicle in SHAM- or Aβ-treated mice. […]
5-HT, noradrenaline (NA), and KYN levels were measured in the PFC and HIPP of mice by HPLC coupled with an electrochemical detector (Ultimate ECD, Thermo Scientific Dionex, Milan, Italy) as already reported [Francavilla M et al. 2012, Morgese M G et al. 2016]. […] GLU concentrations were determined by HPLC coupled with fluorescence detection (emission length 460 nm; excitation length 340 nm), as previously published [Francavilla M et al. 2012]. […]

With C[C@H]1[C@H](C)CC[C@]2(C)CC[C@]3(C)C(=CC[C@@H]4[C@@]5(C)CC[C@@H](O)[C@](C)(C(=O)O)[C@@H]5CC[C@]43C)[C@H]12 [βBA, β-boswellic acid] the plasma/os ratio ([1]; after hyperlipidic meal) was 0.55, the “blood concentration of βBA relative to AKBA” value ([1]; both fasting and hyperlipidic meal) was “at least 6 times” and the plasma/os ratio ([1]; fasting condition) was 0.09. For the same compound, the Δos/plasma ([1]; healthy volunteers, fasted conditions) was 10.9 fasted, the Δos/plasma ([1]; healthy volunteers, hyperlipidic fed conditions) was 1.82 hyperlipidic and the “increase in blood concentration / intestinal absorption induced by a hyperlipidic meal” value ([1]; healthy volunteers, hyperlipidic meal vs fasted) was 6 times. The Δos/plasma [2] was 14.3, the “reduction of blood concentration compared to the dose introduced orally” value ([3]; intestinal mucosa to blood) was “up to 40 times” and the “concentration in the brain” value [3] was 1,066 ng/g o ng/ml. For the same compound, the “concentration in the plasma” value [3] was 725 ng/g o ng/ml, the PSD-95 tissue concentration [4] was “remove Aβ-induced alterations in a progressive manner” and the “Norepinephrine (NA) levels” value [5] was “removes the reduction of NA induced by Aβ treatment and increases its expression in both PFC and HIPP compared with the control group”.
